PMC9026109, “Enhancing the Anticancer Potential of Targeting Tumor-Associated Metalloenzymes via VEGFR Inhibition by New Triazolo[4,3-a]pyrimidinone Acyclo C-Nucleosides Multitarget Agents” (Molecules, 2022)
Values joined by “and” are separate entries in the source; they are usually repeats but may differ in a detail not shown here. Equal values may be shown once. Read-outs that look alike come from different tables or passages of the source.

Columns and labels:
MDA-MB 231 = experiment: MTT anticancer activity, MDA-MB 231; format: cell-based, human; conditions: for IC50: Homo sapiens, MDA-MB 231, 72 h, MTT, mean ± SEM; for SI: ratio IC50 on normal cells (Wi-38) / IC50 on MDA-MB 231
From the text: (§1) All derivatives were subjected to preliminary cytotoxicity screening on normal human lung fibroblasts (Wi-38) for selectivity assessment, followed by anticancer evaluation against MDA-MB231, Caco-2, and HepG-2 cells compared to the reference multitarget chemotherapeutic agent doxorubicin (Dox) by MTT assay. It is worth mentioning that previous studies reported that Dox inhibits the VEGF pathway which is the main anticancer target of the current study via various mechanisms.
(§2) The compounds’ cytotoxicity on normal and cancer cells was assayed by MTT as reported and detailed in the Supplementary Materials. […]
(§3) 2.1. Cytotoxicity screening on normal human lung fibroblasts (Wi-38)
(§4) The normal human lung fibroblast Wi-38 cell line was used to detect cytotoxicity of the studied compounds. Wi-38 cell line was cultured in DMEM medium-contained 10 % fetal bovine serum (FBS), seeded as 5x10^3 cells per well in 96-well cell culture plate, and incubated at 37 °C in 5 % CO2 incubator. After 24 h for cell attachment, serial concentrations (25-800 nM) of the synthetic compounds and currently used chemotherapy (doxorubicin) were incubated with Wi-38 cells for 72 h. Cell viability was assayed by the MTT method. Twenty microliters of 5 mg/ml MTT (Sigma, USA) were added to each well and the plate was incubated at 37 °C for 3 h. Then MTT solution was removed, 100 µl DMSO was added and the absorbance of each well was measured with a microplate reader (BMG LabTech, Germany) at 570 nm. Plot of Wi-38 cell […]
(§5) compounds (8 and 9) and the reference chemotherapy (Dox) is illustrated in figure 39-A. The effective […]
(§6) was estimated by the Graphpad Instat software. Additionally, morphology of Wi-38 before and after […]
(§7) microscope with a digital camera (Olympus, Japan).
(§8) 2.2. Determination of the anticancer activity
(§9) The anticancer effect of the above-mentioned compounds, in comparison with doxorubicin (Dox), was assayed using three human cancer cell lines. Colon cancer cell line (Caco-2) was cultured in DMEM (Lonza, USA) contained with 10 % FBS while liver cancer cell line (HepG-2) and triple-negative breast cancer cell line (MDA- MB 231) were cultured in RPMI-1640 (Lonza, U SA) supplemented with 10 % FBS. […] After 24h, serial concentrations (0.2-125 nM) of the tested compounds were incubated with three cancer cell lines for 72 h at 37 °C in a 5 % CO2 incubator. MTT method was done as described above. Plots of cancer cells viability (%) and growth inhibition (%) of the studied […]
(§10) illustrated in figure 39. […]
(§11) The half-maximal inhibitory concentration (IC50) values were calculated using the Graphpad Instat […]
(§12) safest anticancer compounds were investigated using phase-contrast inverted microscope with a digital […]
(§13) ratio of IC50 value of normal cells to IC50 value of each studied cancer cell lines.
(§14) Figure S40. Plot of (A) Wi-38 cell viability (%) and (B-D) growth inhibition (%) of cancer cell lines with […]

[1] = tested on: normal human lung fibroblasts (Wi-38); experiment: MTT cytotoxicity screening on normal human lung fibroblasts (Wi-38); format: cell-based; conditions: for IC50: Homo sapiens; for IC50 / EC100: Wi-38, 72 h, MTT, mean ± SEM; for EC100: concentration at 100% cell viability
From the text: as §1, §2, §3, §4, §5, §6
microscope with a digital camera (Olympus, Japan). […]

HepG-2 = experiment: MTT anticancer activity, HepG-2; format: cell-based, human; conditions: for IC50: Homo sapiens, HepG2, HepG-2, 72 h, MTT, mean ± SEM; for SI: ratio IC50 on normal cells (Wi-38) / IC50 on HepG-2
From the text: as §1, §2, §3, §4, §5, §6, §7, §8
The anticancer effect of the above-mentioned compounds, in comparison with doxorubicin (Dox), was assayed using three human cancer cell lines. Colon cancer cell line (Caco-2) was cultured in DMEM (Lonza, USA) contained with 10 % FBS while liver cancer cell line (HepG-2) and triple-negative breast cancer cell line (MDA- MB 231) were cultured in RPMI-1640 (Lonza, U SA) supplemented with 10 % FBS. […]
compounds were incubated with three cancer cell lines for 72 h at 37 °C in a 5 % CO2 incubator. MTT method was done as described above. Plots of cancer cells viability (%) and growth inhibition (%) of the studied […]
as §10, §11, §12, §13, §14

Caco-2 = experiment: MTT anticancer activity, Caco-2; format: cell-based, human; conditions: for IC50: Homo sapiens, Caco-2, 72 h, MTT, mean ± SEM
From the text: as §1, §2, §3, §4, §5, §6, §7, §8, §9, §10, §11, §12, §13, §14

MMP-2 = molecular target: T1, MMP-2 (Homo sapiens, UniProt P08253); experiment: MMP-2 inhibitor screening kit (colorimetric); format: biochemical; conditions: in vitro MMP-2
T1 construct: read from the 'ab' catalogue number) ab139446
Protocol: VEGFR-2 inhibition was detected by VEGFR-2 (KDR) Kinase Assay Kit-BPS Bioscience Corporation catalog # 40325 [107]. MMP-2 inhibitory activities were evaluated utilizing MMP-2 inhibitor screening kit (Colorimetric) catalog # ab139446 [108]. CA II inhibition assay was performed as reported. The protocols are detailed in the Supplementary Materials.
2.4. MMP-2 inhibitory activity assay […]
inhibitor screening kit (Colorimetric) catalog # ab139446 following the manufacturer’s instructions. The assay uses a thiopeptide as a chromogenic substrate. The MMP cleavage site peptide bond is replaced by a thioester bond in the thiopeptide. Hydrolysis of this bond by MMP-2 produces a sulfhydryl group, which reacts with Ellman’s reagent to form 2-nitr o-5-thiobenzoic acid that can be detected by its absorbance at 412 nm. The pr ocedure of MMP -2 inhibiti on assay is as foll owing
- Add test compounds and diluted enzyme solution to the microplate wells.
- Simultaneously establish the following control wells.
- Vehicle control contains MMP enzyme and vehicle used in delivering test compound (DMSO, concentration […]
- bring the total volume of all controls to 50 µL. Pre-incubate the plate for 10 min. at assay temperature to 37°C.
- Run the enzymatic reaction. […]
inhibited), which were calculated from dose-response curve obtained using eight tested concentrations of the inhibitor and carried out in duplicate. […]

[2] = ratio IC50 on normal cells (Wi-38) / IC50 on Caco-2

T1 sequence (P08253 110-446 limits assumed): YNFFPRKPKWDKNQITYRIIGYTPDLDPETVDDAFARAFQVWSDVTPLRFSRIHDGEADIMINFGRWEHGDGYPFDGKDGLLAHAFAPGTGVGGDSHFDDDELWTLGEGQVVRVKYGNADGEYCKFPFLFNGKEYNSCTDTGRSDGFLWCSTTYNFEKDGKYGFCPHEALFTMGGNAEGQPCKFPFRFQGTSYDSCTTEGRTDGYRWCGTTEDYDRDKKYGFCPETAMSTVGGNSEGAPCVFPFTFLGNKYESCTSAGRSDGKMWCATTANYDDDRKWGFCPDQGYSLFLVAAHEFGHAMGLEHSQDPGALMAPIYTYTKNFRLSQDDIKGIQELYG

Row | IC50 (MDA-MB 231) | IC50 (HepG-2) | IC50 (Caco-2) | melting point | SMILES | SI (MDA-MB 231) | IC50 [1] | EC100 [1] | EC100 ([1]; listed as Dox) | morphological alteration of treated cells ([1]; Wi-38 at 30 nM, phase-contrast microscopy) | SI (HepG-2) | SI (Caco-2) | SI (Caco-2; [2]) | IC50 (MMP-2)
1 | 10.6 ± 0.1 nM | 22.5 ± 10 nM | 48.3 ± 30 nM | – | COc1cccc2c1C(=O)c1c(O)c3c(c(O)c1C2=O)C[C@@](O)(C(=O)CO)C[C@@H]3O[C@H]1C[C@H](N)[C@H](O)[C@H](C)O1 [Doxorubicin, doxorubicin, reference compound] | 2.83 | 30 ± 1 nM | 11.50 ± 0.50 nM | 11.5 nM | morphological damage | 1.33 | 0.62 | – | –
2 | 100 ± 2.99 nM | 3550 ± 35.5 nM | 128 ± 1.48 nM | 215 to 216 °C | Cc1cc(=O)[nH]c(NN=C[C@H](O)[C@@H](O)[C@H](O)CO)n1 [Compound 2, D-Xylose-(6-methyl-4-oxo-2-pyrimidinyl)hydrazone] | 0.93 | 92.86 ± 0.35 nM | 46.35 ± 1.35 nM | – | – | 0.02 | – | 0.73 | –
3 | 46.3 ± 3.32 nM | 4628 ± 33 nM | 54.06 ± 0.47 nM | 112 to 114 °C | CC(=O)OCC(OC(C)=O)C(OC(C)=O)C(OC(C)=O)C1N(C(C)=O)N(C(C)=O)c2nc(C)cc(=O)n21 [Compound 6, N^1,N^2-Diacetyl-3-(1,2,3,4-tetra-O-acetyl-D-xylo-tetritol-1-yl)-7-methyl-5-oxo-1,2,4-triazolo[4,3-a]pyrimidine] | 12.69 | 587.1 ± 4.48 nM | 353.7 ± 9.54 nM | – | – | 0.13 | – | 10.86 | –
4 | – | – | – | – | COc1ccc(S(=O)(=O)N(CC(=O)NO)CC(C)C)cc1 [NNGH, N-Isobutyl-N-(4-methoxyphenylsulfonyl)glycyl hydroxamic acid] | – | – | – | – | – | – | – | – | 298 ± 20.2 nM
5 | 75.8 ± 1.25 nM | 3490 ± 182 nM | 96.49 ± 0.09 nM | 240 to 242 °C | Cc1cc(=O)[nH]c(NN=C[C@H](O)[C@@H](O)[C@H](O)[C@H](O)CO)n1 [Compound 3, D-Glucose-(6-methyl-4-oxo-2-pyrimidinyl)hydrazone] | 2.33 | 176 ± 4.14 nM | 84.54 ± 1.00 nM | – | – | 0.05 | – | 1.83 | –
6 | 39.99 ± 0.04 nM | 3730 ± 252 nM | 47.44 ± 0.38 nM | 97 to 100 °C | CC(=O)OCC(OC(C)=O)C(OC(C)=O)C(OC(C)=O)C(OC(C)=O)C1N(C(C)=O)N(C(C)=O)c2nc(C)cc(=O)n21 [Compound 7, N^1,N^2-Diacetyl-3-(1,2,3,4,5-penta-O-acetyl-D-galacto-pentitol-1-yl)-7-methyl-5-oxo-1,2,4-triazolo[4,3-a]pyrimidine] | 21.82 | 872 ± 16.3 nM | 664.3 nM and 664.3 ± 26.60 nM | – | – | 0.23 | – | 18.39 | –
7 | 93.7 ± 2.69 nM | 4940 ± 101 nM | 108.1 ± 0.62 nM | 220 to 222 °C | Cc1cc(=O)[nH]c(NN=C[C@@H](O)[C@@H](O)[C@H](O)[C@H](O)CO)n1 [Compound 4, D-Mannose-(6-methyl-4-oxo-2-pyrimidinyl)hydrazone] | 1.37 | 128 ± 2.96 nM | 64.61 ± 0.68 nM | – | – | 0.03 | – | 1.19 | –
8 | – | – | – | 100 to 102 °C | CC(=O)OC[C@@H](OC(C)=O)[C@@H](OC(C)=O)[C@H](OC(C)=O)[C@H](OC(C)=O)[C@@H]1N(C(C)=O)N(C(C)=O)c2nc(C)cc(=O)n21 [Compound 9, N^1,N^2-Diacetyl-3-(1,2,3,4,5-penta-O-acetyl-D-manno-pentitol-1-yl)-5-methyl-7-oxo-1,2,4-triazolo[4,3-a]pyrimidine] | – | – | – | – | – | – | – | – | –
9 | 83.3 ± 3.06 nM | 3820 ± 126 nM | 111 ± 2.94 nM | 213 to 214 °C | Cc1cc(=O)[nH]c(NN=C[C@H](O)[C@@H](O)[C@@H](O)[C@H](O)CO)n1 [Compound 5, D-Galactose-(6-methyl-4-oxo-2-pyrimidinyl)hydrazone] | 1.23 | 102 ± 1.25 nM | 48.16 ± 1.66 nM | – | – | 0.03 | – | 0.92 | –
